# Earlier results as cited in patent US20240401031A1, “Platform Using iPSC-Derived Cardiomyocytes Carrying Gene Variants as Models of Cardiac Disease and Drug-Response” (SRI INTERNATIONAL, priority 2021, published 2024).
# Details: source CredibleMeds
row,SMILES,Risk (Torsade de Pointes)
1,COc1c(N2CCNC(C)C2)c(F)cc2c(=O)c(C(=O)O)cn(C3CC3)c12 (stereo not drawn) [Gatifloxacin],(KR)
2,CCc1nc(C(N)=O)c(Nc2ccc(N3CCC(N4CCN(C)CC4)CC3)c(OC)c2)nc1NC1CCOCC1 [Gilteritinib],(PR)
3,CN1CC[C@@H](NC(=O)Nc2ccc(C#N)cc2)C[C@@H]1c1nc2ccccc2[nH]1 [Glasdegib],(PR)
4,CN1C2CCCC1CC(NC(=O)c1nn(C)c3ccccc13)C2 (stereo not drawn) [Granisetron],(PR)
5,NS(=O)(=O)c1cc2c(cc1Cl)NCNS2(=O)=O [Hydrochlorothiazide],(CR)
6,CC[C@H]1CN2CC[C@H]1C[C@@H]2[C@@H](O)c1ccnc2ccc(OC)cc12 [Hydroquinidine],(KR)
7,CCN(CCO)CCCC(C)Nc1ccnc2cc(Cl)ccc12 (stereo not drawn) [Hydroxychloroquine],(KR)
8,OCCOCCN1CCN(C(c2ccccc2)c2ccc(Cl)cc2)CC1 (stereo not drawn) [Hydroxyzine],(CR)
9,CCCCCCCN(CC)CCCC(O)c1ccc(NS(C)(=O)=O)cc1 (stereo not drawn) [Ibutilide],(KR)
10,COc1cc(C(C)=O)ccc1OCCCN1CCC(c2noc3cc(F)ccc23)CC1 [Iloperidone],(PR)
11,CN(C)CCCN1c2ccccc2CCc2ccccc21 [Imipramine],(PR)
12,CCc1cc2c(cc1CC)CC(NC[C@H](O)c1ccc(O)c3[nH]c(=O)ccc13)C2 [Indacaterol],(SR)
13,CC1Cc2ccccc2N1NC(=O)c1ccc(Cl)c(S(N)(=O)=O)c1 (stereo not drawn) [Indapamide],(CR)
14,CC(C)NCC(O)c1ccc(O)c(O)c1 (stereo not drawn) [Isoproterenol],(SR)
15,COC(=O)C1=C(C)NC(C)=C(C(=O)OC(C)C)C1c1cccc2nonc12 (stereo not drawn) [Isradipine],(PR)
16,CCC(C)n1ncn(-c2ccc(N3CCN(c4ccc(OCC5COC(Cn6cncn6)(c6ccc(Cl)cc6Cl)O5)cc4)CC3)cc2)c1=O (stereo not drawn) [Itraconazole],(CR)
17,COc1cc2c(cc1OC)CC(=O)N(CCCN(C)C[C@H]1Cc3cc(OC)c(OC)cc31)CC2 [Ivabradine],(CR)
18,N#Cc1ccnc(N2C(=O)CC[C@H]2C(=O)N(c2cncc(F)c2)[C@H](C(=O)NC2CC(F)(F)C2)c2ccccc2Cl)c1 [Ivosidenib],(PR)
19,O=C(c1ccc(F)cc1)C1CCN(CCn2c(=O)[nH]c3ccccc3c2=O)CC1 [Ketanserin],(PR)

row,SMILES,Risk (Torsade de Pointes)
1,CC(=O)N1CCN(c2ccc(OCC3COC(Cn4ccnc4)(c4ccc(Cl)cc4Cl)O3)cc2)CC1 (stereo not drawn) [Ketoconazole],(CR)
2,CCOC(=O)C1=C(C)NC(C)=C(C(=O)OCC)C1c1ccccc1/C=C/C(=O)OC(C)(C)C [Lacidipine],(PR)
3,Cc1c(OCC(F)(F)F)ccnc1C[S+]([O-])c1nc2ccccc2[nH]1 (stereo not drawn) [Lansoprazole],(CR)
4,CS(=O)(=O)CCNCc1ccc(-c2ccc3ncnc(Nc4ccc(OCc5cccc(F)c5)c(Cl)c4)c3c2)o1 [Lapatinib],(PR)
5,C=C[C@]1(C)C[C@@H](OC(=O)CS[C@@H]2CC[C@@H](N)C[C@H]2O)[C@]2(C)[C@H](C)CC[C@]3(CCC(=O)[C@H]32)[C@@H](C)[C@@H]1O [Lefamulin],(PR)
6,CC[C@@H](C(N)=O)N1CCCC1=O [Levetiracetam],(PR)
7,COc1ccc2c(c1)N(C[C@H](C)CN(C)C)c1ccccc1S2 [Levomepromazine],(KR)
8,CCC(=O)C(C[C@@H](C)N(C)C)(c1ccccc1)c1ccccc1 [Levomethadone],(PR)
9,CC[C@H](O)C(C[C@H](C)N(C)C)(c1ccccc1)c1ccccc1 [Levomethadyl],(KR)
10,CN[C@H](C)Cc1ccccc1 [Levomethamphetamine],(SR)
11,CCN1CCC[C@H]1CNC(=O)c1cc(S(N)(=O)=O)ccc1OC [Levosulpiride],(KR)
12,CC(=O)NC[C@H]1CN(c2ccc(N3CCOCC3)c(F)c2)C(=O)O1 [Linezolid],(PR)
13,C[C@@H](Cc1ccccc1)NC(=O)[C@@H](N)CCCCN [Lisdexamfetamine],(SR)
14,[Li] [Lithium],(PR)
15,CC(Oc1c(Cl)cccc1Cl)C1=NCCN1 (stereo not drawn) [Lofexidine],(PR)
16,O=C1[C@@H]2[C@H]3CC[C@H](C3)[C@@H]2C(=O)N1C[C@@H]1CCCC[C@H]1CN1CCN(c2nsc3ccccc23)CC1 [Lurasidone],(PR)
17,CNCCCC12CCC(c3ccccc31)c1ccccc12 [Maprotiline],(PR)
18,CN1CCCCC1CCN1c2ccccc2Sc2ccc([S+](C)[O-])cc21 (stereo not drawn) [Mesoridazine],(KR)
19,CCC(=O)C(CC(C)N(C)C)(c1ccccc1)c1ccccc1 (stereo not drawn) [Methadone],(KR)

row,SMILES,Risk (Torsade de Pointes)
1,CN[C@@H](C)Cc1ccccc1 [Methamphetamine],(SR)
2,CCN(CC)CCNC(=O)c1cc(Cl)c(N)cc1OC [Metoclopramide],(CR)
3,Cc1ccccc1N1C(=O)c2cc(S(N)(=O)=O)c(Cl)cc2NC1C (stereo not drawn) [Metolazone],(CR)
4,CN1CCN2c3ccccc3Cc3ccccc3C2C1 (stereo not drawn) [Mianserin],(PR)
5,COc1ccc(OC)c(C(O)CNC(=O)CN)c1 (stereo not drawn) [Midodrine],(SR)
6,CO[C@@H]1[C@H](N(C)C(=O)c2ccccc2)C[C@H]2O[C@]1(C)n1c3ccccc3c3c4c(c5c6ccccc6n2c5c31)C(=O)NC4 [Midostaurin],(PR)
7,Nc1nc(CC(=O)Nc2ccc(CCNC[C@H](O)c3ccccc3)cc2)cs1 [Mirabegron],(PR)
8,Cc1c(O)cccc1C(=O)N[C@@H](CSc1ccccc1)[C@H](O)CN1C[C@H]2CCCC[C@H]2C[C@H]1C(=O)NC(C)(C)C [Nelfinavir],(CR)
9,CCn1cc(C(=O)O)c(=O)c2cc(F)c(N3CCNCC3)cc21 [Norfloxacin],(PR)
10,CNCCC=C1c2ccccc2CCc2ccccc21 [Nortriptyline],(PR)
11,COc1ccsc1CNCC[C@@]1(c2ccccn2)CCOC2(CCCC2)C1 [Oliceridine],(PR)
12,COc1ccc(CC(C)(C)NC[C@H](O)c2cc(O)cc3c2OCC(=O)N3)cc1 [Olodaterol],(SR)
13,COc1ccc2[nH]c([S+]([O-])Cc3ncc(C)c(OC)c3C)nc2c1 (stereo not drawn) [Omeprazole],(CR)
14,Cc1nccn1CC1CCc2c(c3ccccc3n2C)C1=O (stereo not drawn) [Ondansetron],(KR)
15,O=C1[O][Pt]2([NH][C@@H]3CCCC[C@H]3[NH]2)[O]C1=O [Oxaliplatin],(KR)
16,Cc1cc(C(C)(C)C)c(O)c(C)c1CC1=NCCN1 [Oxymetazoline],(SR)
17,CC(C)Oc1ccc(-c2nc(-c3cccc4c3CC[C@@H]4NCCO)no2)cc1C#N [Ozanimod],(PR)
18,Cc1nc2n(c(=O)c1CCN1CCC(c3noc4cc(F)ccc34)CC1)CCCC2O (stereo not drawn) [Paliperidone],(PR)
19,O=C1c2cccc3c2[C@H](CCC3)CN1[C@@H]1CN2CCC1CC2 [Palonosetron],(PR)
